The values below come from patent publication US5684028A, “Sulphorous derivatives of imidazole, their preparation process, the new intermediates obtained, their use as medicaments and the pharmaceutical compositions” (Roussel UCLAF, priority 1990, dated 1997).

The target in one experiment is T1, angiotensin II receptor (Rattus norvegicus, UniProt P25095).
T1 construct: A fresh membrane preparation obtained from the liver of a rat is used; from tissue; host or cells: rat liver, fresh membrane preparation
T1 sequence (P25095 1-359): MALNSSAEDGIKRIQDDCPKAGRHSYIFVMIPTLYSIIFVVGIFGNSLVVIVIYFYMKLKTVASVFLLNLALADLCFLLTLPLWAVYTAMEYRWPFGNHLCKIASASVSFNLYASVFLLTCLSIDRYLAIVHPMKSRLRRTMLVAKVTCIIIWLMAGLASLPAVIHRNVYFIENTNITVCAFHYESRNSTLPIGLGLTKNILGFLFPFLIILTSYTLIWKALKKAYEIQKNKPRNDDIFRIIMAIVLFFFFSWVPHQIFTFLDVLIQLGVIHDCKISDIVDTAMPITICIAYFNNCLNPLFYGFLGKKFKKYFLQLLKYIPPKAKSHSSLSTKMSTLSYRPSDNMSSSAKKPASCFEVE
Put plainly: Test on the angiotensin II receptor (displacement of I^125 angiotensin II, rat liver membranes). The class given is binding. Conditions: 25° C., 150 minutes, read-out: IC50 (50% inhibiting concentration, displacement of specific radioactivity fixed on the receptor). How it is done:
1 - Test on the angiotensin II receptor
A fresh membrane preparation obtained from the liver of a rat is used. The tissue is ground up in a polytron in a Tris 50 mM buffer pH 7.4, the grinding is followed by 3 centrifugations at 30,000 g for 15 minutes, the deposits being taken up in between in the Tris buffer pH 7.4.
The last deposits are put in suspension in an incubation buffer (Tris 20 mM, NaCl 135 mM, […], KCl 10 mM, glucose 5 mM, MgCl2 10 mM PMSF 0.3 mM, bacitracin 0.1 mM, BSA 0.2%).
Aliquoted fractions of 2 ml are divided into hemolysis tubes and I^125 angiotensin II (25,000 DPM per tube) and the product to be studied are added. (The product is first tested at 3×10^-5 M three times). When the tested product displaces by more than 50% the radioactivity linked specifically to the receptor, it is tested again according to a range of 7 doses in order to determine the dose which inhibits by 50% the radioactivity linked specifically to the receptor. In this way the 50% inhibiting concentration is determined.
The non-specific bond is determined by addition of the product of Example 94 of the European Patent 0,253,310, at 10^-5 M (three times). The medium is incubated at 25° C. for 150 minutes, put in a water bath at 0° C. for 5 minutes, filtered under vacuum, rinsed with Tris buffer pH 7.4 and the radioactivity is counted in the presence of scintillating Triton.
The result is expressed directly as the 50% inhibiting concentration (IC50), that is as the concentration of studied product, expressed in nM, necessary to displace 50% of the specific radioactivity fixed on the receptor studied.

Experiment [1] relates to angiotensin II (pressure effects). Nature of the experiment: Test for antagonistic activity of angiotensin II in a demedullated rat. The class given is in vivo. Conditions: iv, demedullated male Sprague-Dawley rats, jugular vein injection 5 minutes before angiotensin II (0.75 micrograms/kg), diastolic arterial pressure, read-out: IC50 (dose which inhibits by 50% the pressure effects of angiotensin II). The procedure:
3 - Test for antagonistic activity of angiotensin II in a demedullated rat
Male Sprague-Dawley rats (250 to 350 g) are anaesthetized by an intra-peritoneal injection of sodium pentobarbital (60 mg/kg). The diastolic arterial pressure is recorded by means of a heparinized catheter (PE50) introduced into the left carotid of the animal, and connected to a pressure calculator (Gould, Pressure Processor) by means of a Gould pressure sensor,
A catheter is introduced into the right jugular vein of the animal in order to allow the injection of the molecules to be studied.
The animal is placed under assisted respiration. A bilateral section of the pneumogastric nerves is carried out. The rat is then demedullated.
After a suitable period of stabilization, the study of the antagonism of the molecules vis- -vis angiotensin II (CIBA Hypertensin) is approached in the following manner:
1 - Three consecutive injections of angiotensin II (0.75 micrograms/kg) spaced 15 minutes apart permits a reproducible and stable pressure response to be obtained.
2 - While keeping a time interval of 15 minutes for the administration of angiotensin II, the molecules (0.01 to 10 mg/kg) are injected 5 minutes before the angiotensin II.
The pressure effects of angiotensin II in the presence of the antagonist are expressed as a percentage of the pressure effects of angiotensin II administered on its own. The dose which inhibits the studied effect by 50% is thus determined.
Each animal is considered to be its own control.

Experiment [2] deals with angiotensin II (response of the isolated portal vein). Nature of the experiment: Antagonistic activity of angiotensin II on the isolated portal vein. The settings on record: portal vein of male Wistar rats; angiotensin II 3.10^-8 M; compound 15 minutes before; 37° C.; verapamil 1.10^-6 M; read-out: IC50 (dose which produces a 50% inhibition of the response to angiotensin). The procedure: The portal vein of male Wistar rats (about 350 g) (IFFA Credo France) is removed after cervical dislocation and placed rapidly in a physiological solution (see below) at ambient temperature. A ring of about 1 mm is mounted in a bath with an isolation mechanism, containing 20 ml of the following physiological solution (composition in mM: NaCl 118.3 - KCl 4.7 - MgSO4 1.2 - KH2 PO4 1.2 - NaHCO3 25 - glucose 11.1 - CaCl2 2.5), the medium is maintained at 37° C. and oxygenated with an oxygen (95%), carbon dioxide (5%) mixture. The initial pressure imposed is 1 g, the rings are left at rest for 60 to 90 minutes. In order to avoid spontaneous contractions, verapamil is added to the incubation bath (1.10^-6 M).
At the end of the rest period angiotensin II (Ciba hypertensin) 3.10^-8 M is added to the incubation bath and left in contact with the preparation for one minute. This operation is repeated every 30 minutes, the tissue being washed 3 or 4 times between two stimulations by angiotensin. The compound to be studied is introduced into the bath 15 minutes before a new stimulation by angiotensin. Increasing concentrations of the product to be studied are used and the IC50 (dose which produces a 50% inhibition of the response to angiotensin) of the product to be studied is calculated, this is expressed in nanomoles.

For `CCCCc1nc(S(C)(=O)=O)c(C(=O)O)n1Cc1ccc(-c2ccccc2-c2nn[nH]n2)cc1` [Example 84], the IC50 on angiotensin II receptor was determined as 0.8 nM.
As to `CCCCc1nc(SC)c(C(=O)O)n1Cc1ccc(-c2ccccc2-c2nnn[nH]2)cc1` [Example 51, 2-butyl-4-(methylthio)-1-[[2'-(1H-tetrazol-5-yl)-(1,1'-biphenyl)-4-yl]-methyl]-1H-imidazole-5-carboxylic acid], the ED50 in experiment [1] was 0.054 mg/kg. For the same molecule, the values for the IC50 (on angiotensin II receptor; in experiment [2]) were 1.9 nM and 0.14 nM, respectively.
`CCCCc1nc(SCC)c(CO)n1Cc1ccc(-c2ccccc2C(=O)O)cc1` [Example 14, 4'-[[2-butyl-4-(ethylthio)-5-(hydroxymethyl)-1H-imidazol-1-yl]-methyl]-(1,1'-biphenyl)-2-carboxylic acid]: the ED50 in experiment [1] is 0.78 mg/kg. For the same molecule, the IC50 in experiment [2] amounted to 10 nM.
Regarding `CCCCc1nc(S(C)(=O)=O)c(C(=O)O)n1Cc1ccc(-c2ccccc2-c2nn[nH]n2)cc1` [Example 83], in experiment [1], the ED50 was determined as 0.022 mg/kg. Moreover, the figures for the IC50 (on angiotensin II receptor; in experiment [2]) were 1.3 nM and 0.21 nM, respectively.
As for `CCCCc1nc([S+]([O-])CC)c(C(=O)O)n1Cc1ccc(-c2ccccc2C(=O)O)cc1` (stereo not drawn) [Example 16, 2-butyl-1-[[2'-carboxy-(1,1'-biphenyl)-4-yl]-methyl]-4-(ethylsulphinyl)-1H-imidazole-5-carboxylic acid], the ED50 in experiment [1] worked out at 0.29 mg/kg.
Same read-out and setting: the same measure for `CCCCc1nc(S(=O)(=O)CC)c(C(=O)O)n1Cc1ccc(-c2ccccc2C(=O)O)cc1` [Example 18, 2-butyl-1-[[2'-carboxy-(1,1'-biphenyl)-4-yl]-methyl]-4-(ethylsulphonyl)-1H-imidazole-5-carboxylic acid]: 0.79 mg/kg.
As for `CCCCc1nc([S+]([O-])c2ccccc2)c(C(=O)O)n1Cc1ccc(-c2ccccc2C(=O)O)cc1` (stereo not drawn) [Example 28, 2-butyl-1-[[2'-carboxy-(1,1'-biphenyl)-4-yl]-methyl]-4-(phenylsulphinyl)-1H-imidazole-5-carboxylic acid], the IC50 on angiotensin II receptor was 10.2 nM.
Consider `CCCCc1nc(SCc2ccccc2)c(CO)n1Cc1ccc(-c2ccccc2C(=O)O)cc1` [Example 74], for which, in experiment [1], the ED50 came out at 0.34 mg/kg. Besides, the IC50 at angiotensin II receptor is 5.8 nM; in experiment [2] it was 2 nM.
Regarding `CCCCc1nc(Sc2ccccc2)c(C(=O)O)n1Cc1ccc(-c2ccccc2-c2nn[nH]n2)cc1` [Example 92], the ED50 in experiment [1] was determined as 0.08 mg/kg. The IC50 on angiotensin II receptor worked out at 0.5 nM.
Take `CCCCc1nc(SCc2ccccc2)c(C(=O)O)n1Cc1ccc(-c2ccccc2C(=O)O)cc1` [Example 48, 2-butyl-1-[[2'-carboxy-(1,1'-biphenyl)-4-yl]-methyl]-4-[(phenylmethyl)-thio]-1H-imidazole-5-carboxylic acid]: the IC50 on angiotensin II receptor was found to be 5.7 nM; in experiment [2], 0.9 nM.
On the same counts, the results for `CCCCc1nc(Sc2ccccc2)c(C(=O)O)n1Cc1ccc(-c2ccccc2C(=O)O)cc1` [Example 20, 2-butyl-1-[[2'-carboxy-(1,1'-biphenyl)-4-yl]-methyl]-4-(phenylthio)-1H-imidazole-5-carboxylic acid] are 17 nM and 5 nM.
Consider `CCCCc1nc(S(=O)(=O)c2ccccc2)c(C(=O)O)n1Cc1ccc(-c2ccccc2C(=O)O)cc1` [Example 26, 2-butyl-1-[[2'-carboxy-(1,1'-biphenyl)-4-yl]-methyl]-4-(phenylsulphonyl)-1H-imidazole-5-carboxylic acid], for which the IC50 at angiotensin II receptor was determined as 47 nM.
Consider `CCCCc1nc(SC)c(C(=O)OCOC(=O)C(C)(C)C)n1Cc1ccc(-c2ccccc2-c2nn[nH]n2)cc1` [Example 106], for which the ED50 in experiment [1] was found to be 0.04 mg/kg.
With `CCCCc1nc(SC)c(C(=O)O)n1Cc1ccc(-c2ccccc2C(=O)O)cc1` [Example 22, 2-butyl-1-[[2'-carboxy-(1,1'-biphenyl)-4-yl]-methyl]-4-(methylthio)-1H-imidazole-5-carboxylic acid], the ED50 in experiment [1] was determined as 0.47 mg/kg. In addition, the IC50 at angiotensin II receptor came to 49 nM; in experiment [2] it was 8 nM.
For `CCCCc1nc(SCC)c(C(=O)O)n1Cc1ccc(-c2ccccc2C(=O)O)cc1` [Example 6, 2-butyl-1-[[2'-carboxy-(1,1'-biphenyl)-4-yl]-methyl]-4-(ethylthio)-1H-imidazole-5-carboxylic acid], the IC50 in experiment [2] turned out to be 13 nM.
In the case of `CCCCc1nc(SCc2ccc(OC)cc2)c(C(=O)O)n1Cc1ccc(-c2ccccc2C(=O)O)cc1` [Example 70], the ED50 in experiment [1] was found to be 0.33 mg/kg. In addition, the IC50 at angiotensin II receptor is 3.6 nM; in experiment [2], 0.56 nM.
